# In the supplement of paper PMC10307832:
# What was measured:
# Assay in all cases: relative viability (nuclei count vs DMSO), 5 days (fraction); higher = more cells survive
# NCI-H1299 = system: NCI-H1299
# How it was run: (§1)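 Lung cancer cell lines in 1536-well plates were dosed by pin tool the day after seeding, either with one drug alone or with a fixed anchor-drug dose plus five library-drug doses (not always all listed) in √10 steps. After 5 days, cells were fixed and their nuclei stained in one step (final 0.05% Triton X-100, 1% formaldehyde, 1 ug/ml Hoechst), then counted on 4× images. Relative viability is the nuclei count in treated wells divided by that in vehicle wells. Values are medians of duplicate plates.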
# NCI-H596 = system: NCI-H596
# How it was run: as §1
# Calu-6 = system: Calu-6
# How it was run: as §1
# IA-LM = system: IA-LM
# How it was run: as §1
# EBC-1 = system: EBC-1
# How it was run: as §1
# NCI-H1703 = system: NCI-H1703
# How it was run: as §1
# A549 = system: A549
# How it was run: as §1
smiles,measurement,setting,value
CC(C)Oc1cc(Nc2nc(N[C@@H](C)c3ccc(F)cn3)ncc2Cl)n[nH]1 [AZ23] + CS(=O)(=O)CCNCc1ccc(-c2ccc3ncnc(Nc4ccc(OCc5cccc(F)c5)c(Cl)c4)c3c2)o1 [Lapatinib] (partner 2 µM),relative viability,NCI-H1299; first compound 0.01 µM,0.977
same,relative viability,NCI-H1299; first compound 0.03162 µM,1.08
same,relative viability,NCI-H1299; first compound 0.3162 µM,1.03
same,relative viability,NCI-H596; first compound 0.01 µM,1.03
same,relative viability,NCI-H596; first compound 0.03162 µM,1.11
same,relative viability,NCI-H596; first compound 0.3162 µM,1.03
same,relative viability,Calu-6; first compound 0.03162 µM,1.25
same,relative viability,Calu-6; first compound 0.3162 µM,1.08
same,relative viability,IA-LM; first compound 0.01 µM,0.872
same,relative viability,IA-LM; first compound 0.03162 µM,1.37
same,relative viability,IA-LM; first compound 0.3162 µM,0.871
same,relative viability,EBC-1; first compound 0.03162 µM,0.234
same,relative viability,EBC-1; first compound 0.3162 µM,0.194
same,relative viability,NCI-H1703; first compound 0.01 µM,0.939
same,relative viability,NCI-H1703; first compound 0.03162 µM,1.16
same,relative viability,NCI-H1703; first compound 0.3162 µM,1.3
same,relative viability,A549; first compound 0.01 µM,1.16
same,relative viability,A549; first compound 0.03162 µM,0.945
same,relative viability,A549; first compound 0.3162 µM,1.02
Clc1ccc(Nc2nnc(Cc3ccncc3)c3ccccc23)cc1 [Vatalanib] + CS(=O)(=O)CCNCc1ccc(-c2ccc3ncnc(Nc4ccc(OCc5cccc(F)c5)c(Cl)c4)c3c2)o1 [Lapatinib] (partner 2 µM),relative viability,NCI-H1299; first compound 0.04 µM,0.96
same,relative viability,NCI-H1299; first compound 0.1265 µM,0.961
same,relative viability,NCI-H1299; first compound 0.4 µM,0.931
same,relative viability,NCI-H1299; first compound 1.265 µM,0.939
same,relative viability,NCI-H1299; first compound 4 µM,0.969
same,relative viability,NCI-H596; first compound 0.04 µM,1.07
same,relative viability,NCI-H596; first compound 0.1265 µM,1.22
same,relative viability,NCI-H596; first compound 0.4 µM,1.14
same,relative viability,NCI-H596; first compound 1.265 µM,1.03
same,relative viability,NCI-H596; first compound 4 µM,1.16
same,relative viability,Calu-6; first compound 0.04 µM,1.14
same,relative viability,Calu-6; first compound 0.1265 µM,1.02
same,relative viability,Calu-6; first compound 0.4 µM,1.09
same,relative viability,Calu-6; first compound 1.265 µM,1.05
same,relative viability,Calu-6; first compound 4 µM,1.07
same,relative viability,IA-LM; first compound 0.04 µM,0.869
same,relative viability,IA-LM; first compound 0.1265 µM,0.816
same,relative viability,IA-LM; first compound 0.4 µM,0.885
same,relative viability,IA-LM; first compound 1.265 µM,0.674
same,relative viability,IA-LM; first compound 4 µM,0.674
same,relative viability,EBC-1; first compound 0.04 µM,0.165
same,relative viability,EBC-1; first compound 0.1265 µM,0.204
same,relative viability,EBC-1; first compound 0.4 µM,0.22
same,relative viability,EBC-1; first compound 1.265 µM,0.232
same,relative viability,EBC-1; first compound 4 µM,0.202
same,relative viability,NCI-H1703; first compound 0.04 µM,1.28
same,relative viability,NCI-H1703; first compound 0.1265 µM,1.05
same,relative viability,NCI-H1703; first compound 0.4 µM,1.4
same,relative viability,NCI-H1703; first compound 1.265 µM,0.611
same,relative viability,NCI-H1703; first compound 4 µM,0.435
same,relative viability,A549; first compound 0.04 µM,0.991
same,relative viability,A549; first compound 0.1265 µM,0.918
same,relative viability,A549; first compound 0.4 µM,1.05
same,relative viability,A549; first compound 1.265 µM,1
same,relative viability,A549; first compound 4 µM,1.01
COc1cc(N2CCC(C(N)=O)CC2)ccc1Nc1nc(N)c(Cl)c(Nc2ccccc2S(=O)(=O)C(C)C)n1 [HG-5-88-01] + CS(=O)(=O)CCNCc1ccc(-c2ccc3ncnc(Nc4ccc(OCc5cccc(F)c5)c(Cl)c4)c3c2)o1 [Lapatinib] (partner 2 µM),relative viability,NCI-H1299; first compound 0.04 µM,0.914
same,relative viability,NCI-H1299; first compound 0.1265 µM,0.983
same,relative viability,NCI-H1299; first compound 0.4 µM,0.87
same,relative viability,NCI-H1299; first compound 1.265 µM,1.05
same,relative viability,NCI-H1299; first compound 4 µM,0.963
same,relative viability,NCI-H596; first compound 0.04 µM,0.956
same,relative viability,NCI-H596; first compound 0.1265 µM,1.03
same,relative viability,NCI-H596; first compound 0.4 µM,1.06
same,relative viability,NCI-H596; first compound 1.265 µM,1.12
same,relative viability,NCI-H596; first compound 4 µM,0.781
same,relative viability,Calu-6; first compound 0.04 µM,1.11
same,relative viability,Calu-6; first compound 0.1265 µM,1.05
same,relative viability,Calu-6; first compound 0.4 µM,1.19
same,relative viability,Calu-6; first compound 1.265 µM,1.04
same,relative viability,Calu-6; first compound 4 µM,0.774
same,relative viability,IA-LM; first compound 0.04 µM,0.891
same,relative viability,IA-LM; first compound 0.1265 µM,0.864
same,relative viability,IA-LM; first compound 0.4 µM,0.721
same,relative viability,IA-LM; first compound 1.265 µM,0.712
same,relative viability,IA-LM; first compound 4 µM,0.404
same,relative viability,EBC-1; first compound 0.04 µM,0.221
same,relative viability,EBC-1; first compound 0.1265 µM,0.22
same,relative viability,EBC-1; first compound 0.4 µM,0.209
same,relative viability,EBC-1; first compound 1.265 µM,0.21
same,relative viability,EBC-1; first compound 4 µM,0.195
same,relative viability,NCI-H1703; first compound 0.04 µM,0.832
same,relative viability,NCI-H1703; first compound 0.1265 µM,1.15
same,relative viability,NCI-H1703; first compound 0.4 µM,1.22
same,relative viability,NCI-H1703; first compound 1.265 µM,1.08
same,relative viability,NCI-H1703; first compound 4 µM,0.619
same,relative viability,A549; first compound 0.04 µM,0.984
same,relative viability,A549; first compound 0.1265 µM,0.917
same,relative viability,A549; first compound 0.4 µM,0.845
same,relative viability,A549; first compound 1.265 µM,0.573
same,relative viability,A549; first compound 4 µM,0.411
